# Source: US11272706B2, “Anti-resistance method” (UPL LIMITED, priority 2017, dated 2022)
# Where two headings read alike, the source gives them in different places.
# Tests used:
# [1] = system: Drechsiera tritici-repentis; assay: 50% inhibition of spore germination (CI50), five isolates, strobilurin fungicides; assay type: cell-based; conditions: for Reduction factor of the sensitivity, isolate 01/QTZ: CI50 of sensitivity reference 0.75 mg/L; for Reduction factor of the sensitivity, Average / Reduction factor of the sensitivity, isolate 02/ONX / Reduction factor of the sensitivity, isolate 03/HZT / Reduction factor of the sensitivity, isolate 04/GUA / Reduction factor of the sensitivity, isolate 05/CD: reference 0.75 mg/L
# Description: However, the highest reduction of sensitivity of the Dtr to fungicides and what better explains the control failure claimed by producers is the CI50 obtained for QoIs fungicides (see Table 4).
# Lowercase compare average in the column and capital letters in the line. Average of two experiments.
# Taking as Cl50 standard of sensitivity, 0.75 mg/L (Table 4) obtained for pyraclostrobin, it is calculated the reduction factor of the sensitivity of the Dtr to QoIs fungicides (see Table 5).
# Cl50 of sensitivity reference of 0.75 mg/L.
# When the SRF is close to 1.0 there is no reduction of sensitivity. However, if >1 with different magnitude, it indicates reduced sensitivity of fungi to fungicides. In this case SRF ranged from 1.04 to >53 (see Table 5).
# Drechsiera siccans = assay: 50% inhibition of mycelium growth (IC50), five isolates, DMI fungicides; assay type: cell-based
# Description: In the 2003 wheat crop for the first time, there was complaint of leaf spot control failure after continuous use of fungicides DMI+QoI, for 20 years. Until that time there were few reports of the sensitivity of the fungus that is causal agent of yellow spot to fungicides (Stoke, 2006; Tonin, 2009; Beard et al, 2009; Patel et al, 2012). The reference concentrations of sensitivity of Dtr to fungicides found in the literature were 0.17 mg/L in average for the epoxiconazole, propiconazole and tebuconazole. […] Comparing these values with the sensitivity of isolates of Brazil proves the reduced sensitivity occurring here (see Table 3).
# Average of two experiments.
# [2] = system: Dtr (Drechsiera tritici-repentis); conditions: literature value, cited from earlier work
# soybean rust [3] = conditions: crop 2010/11, cited from earlier work; for Control (%): evaluated by AUDPC; for Severity (%): untreated control 74.0
# soybean rust [4] = system: soybean rust; design: Control of soybean rust, crop 2005/06 / Control of soybean rust, crop 2012/13: concentration or dose not given beside the values; conditions: cited from earlier work; for Reduction (%) of control: 2005/06 versus 2012/13 crop; for Control of soybean rust, crop 2005/06 / Control of soybean rust, crop 2012/13: applied preventively; for Control of soybean rust, crop 2005/06: 2005/06 crop; for Control of soybean rust, crop 2012/13: 2012/13 crop
# wheat leaf spots = assay: Control of wheat leaf spots by DMI + QoI mixtures with or without mancozeb; assay type: in vivo, Drechsiera tritici-repentis; conditions: various locations in Brazil
# Source text: (§1) However, its greatest contribution was proven when added to commercial blends bringing control to values of up to 80%, similar efficiency of mixtures “triazole+strobilurin” at the beginning of its use.
# With the addition of mancozeb, by using the method anti-resistance described in the present invention, the control has been quite improved (33.3% also as shown in Table 8).
# soybean rust [5] = assay: Field experiments at various locations in Brazil: mancozeb alone or added to commercial mixtures against soybean rust; assay type: in vivo, Phakopsora pachyrhizi; conditions: mancozeb applied alone
# Source text: as §1
# Therefore, the present invention used the same strategy as the solution to recover the original control levels (>80%) and make the useful life of the fungicides longer in controlling the target disease of the invention. This is because, mancozeb, being a multi-site protective fungicide and presenting a broad spectrum of action, will also contribute to the control of other diseases in soybean and also in wheat.
# A study was conducted to determine the contribution of the mancozeb addition to mixtures of “strobilurin+triazoles.” The experiments were conducted in the field, in nine different locations, where it was determined the fungi toxicity of mancozeb to soybean rust.
# Two doses were tested (1.5 and 2.0 kg/ha) with various numbers of mancozeb applications. The effect of mancozeb (1.5 kg/ha), incorporated into commercial mixtures was also tested.
# The experiments were conducted with soybean cultivar Monsoy 9144 RR. Mancozeb formulation 750 WDG (water dispersible granules) was used, commercially available, for application of mancozeb according to Tables 6 and 7.
# soybean rust [6] = conditions: 2013/14 crop; cited from earlier work
# soybean rust [7] = assay: Cooperative tests of fungicides (Embrapa Soybean): soybean rust control over crops, FIGS. 1-6; assay type: in vivo, Phakopsora pachyrhizi; conditions: from regression equation over crops; starting crop differs per fungicide
# Source text: An example that reinforces the reported fact is the gradual reduction of tebuconazole control over the crops using it covering the period beginning in 2004/05 to 2013/14 (as FIG. 1).
# The results of cooperative tests of fungicides, coordinated by Embrapa Soybean, Londrina, can bring the answer to these questions. The following graphs of FIGS. 2, 3, 4 and 5 show the reduction of rust control by fungicide mixtures traditionally used in soybeans over the past crops.
# FIG. 1. Reduced soybean rust control by tebuconazole over […]. (Source: Cooperative tests of fungicides).
# FIG. 2. Control Reduction of soybean rust by cyproconazole+azoxystrobin mixture over six crops. (Source: Cooperative tests of fungicides).
# FIG. 3. Control Reduction of soybean rust by cyproconazole+picoxystrobin mixture over six crops. (Source: Cooperative tests of fungicides).
# FIG. 4. Reduction control of soybean rust by epoxiconazole+pyraclostrobin mixture over six crops. (Source: Cooperative tests of fungicides).
# FIG. 5. Average reduction of soybean rust control by mixtures of cyproconazole+azoxystrobin, cyproconazole+picoxystrobin and epoxiconazole+pyraclostrobin over six crops. (Source: Cooperative tests of fungicides).
# FIG. 6. Control Reduction of soybean rust for azoxystrobin over six crops. (Source: Cooperative tests of fungicides).
# [8] = spore germination, average of five isolates
# [9] = spore germination, isolate 01/QTZ, average of two experiments
# [10] = spore germination, isolate 02/ONX
# [11] = spore germination, isolate 03/HZT
# [12] = spore germination, isolate 04/GUA
# [13] = spore germination, average of five isolates, read-out: CI50 Average
# [14] = spore germination, isolate 01/QTZ, average of two experiments, read-out: CI50 isolate 01/QTZ
# [15] = spore germination, isolate 02/ONX, read-out: CI50 isolate 02/ONX
# [16] = spore germination, isolate 03/HZT, read-out: CI50 isolate 03/HZT
# [17] = spore germination, isolate 04/GUA, read-out: CI50 isolate 04/GUA
# [18] = average of five isolates, read-out: IC50 Average
# [19] = isolate 01/F30, average of two experiments, read-out: IC50 isolate 01/F30
# [20] = isolate 02/RZ, read-out: IC50 isolate 02/RZ
# [21] = isolate 03/SF, read-out: IC50 isolate 03/SF
# [22] = isolate 04/F52, read-out: IC50 isolate 04/F52
# [23] = isolate 05/VQ, read-out: IC50 isolate 05/VQ
Compound,"Reduction factor of the sensitivity, isolate 01/QTZ ([1]; isolate 01/QTZ)","Reduction factor of the sensitivity, Average ([1]; average of five isolates) [a]","Reduction factor of the sensitivity, isolate 02/ONX ([1]; isolate 02/ONX)","Reduction factor of the sensitivity, isolate 03/HZT ([1]; isolate 03/HZT)","Reduction factor of the sensitivity, isolate 04/GUA ([1]; isolate 04/GUA)","Reduction factor of the sensitivity, isolate 05/CD [1]",IC50 (Drechsiera siccans; [18]) [µg/mL],IC50 (Drechsiera siccans; [19]) [µg/mL],IC50 (Drechsiera siccans; [20]) [µg/mL],IC50 (Drechsiera siccans; [21]) [µg/mL],IC50 (Drechsiera siccans; [22]) [µg/mL],IC50 (Drechsiera siccans; [23]) [µg/mL],further results
CO/C=C(/C(=O)OC)c1ccccc1COc1cccc(C(F)(F)F)n1 [Picoxystrobin],A > 53a,>53,A > 53 a,A > 53 a,A > 53 a,A > 53 a,–,–,–,–,–,–,"CI50 Average [1, 8]: >40 a mg/L; CI50 isolate 01/QTZ [1, 9]: A > 40 a mg/L; CI50 isolate 02/ONX [1, 10]: A > 40 a mg/L; CI50 isolate 03/HZT [1, 11]: A > 40 a mg/L; CI50 isolate 04/GUA [1, 12]: A > 40 a mg/L; CI50 isolate 05/CD ([1]; spore germination): A > 40 a mg/L"
CON=C(C(=O)OC)c1ccccc1CON=C(C)c1cccc(C(F)(F)F)c1 [Trifloxystrobin],A > 53 a,>53,A > 53 a,A > 53 a,A > 53 a,A > 53 a,–,–,–,–,–,–,"IC50 [1, 13]: > 40 µg/mL; IC50 [1, 14]: > 40 µg/mL; IC50 [1, 15]: > 40 µg/mL; IC50 [1, 16]: > 40 µg/mL; IC50 [1, 17]: > 40 µg/mL"
CO/N=C(/C(=O)OC)c1ccccc1COc1ccccc1C [Kresoxim methyl],A > 53 a,>53,A > 53 a,A > 53 a,A > 53 a,A > 53 a,–,–,–,–,–,–,"IC50 [1, 13]: > 40 µg/mL; IC50 [1, 14]: > 40 µg/mL; IC50 [1, 15]: > 40 µg/mL; IC50 [1, 16]: > 40 µg/mL; IC50 [1, 17]: > 40 µg/mL"
CCCC1COC(Cn2cncn2)(c2ccc(Cl)cc2Cl)O1 (centres unmarked) [Propiconazole],–,–,–,–,–,–,0.34,0.32,0.51,0.3,0.3,0.3,IC50 (Hunger & Brown) [2]: 0.04 µg/mL
CC(C1CC1)C(O)(Cn1cncn1)c1ccc(Cl)cc1 (centres unmarked) [Cyproconazole],–,–,–,–,–,–,0.37,0.36,0.47,0.32,0.44,0.29,"Control (%) (soybean rust [3]): 38%; Severity (%) (soybean rust [3]): 58.1%; Reduction (%) of control (soybean rust [4]): 45.9%; Control of soybean rust, crop 2005/06 (soybean rust [4]): 96.0%; Control of soybean rust, crop 2012/13 (soybean rust [4]): 52.0%"
manganese ethylene bis(dithiocarbamate)+Zn [mancozeb],–,–,–,–,–,–,–,–,–,–,–,–,"Control of yellow spot of wheat leaf, applied alone (wheat leaf spots): showed the efficiency; Control of soybean rust, applied alone (soybean rust [5]): showed the efficiency"
Fc1ccc([C@]2(Cn3cncn3)O[C@H]2c2ccccc2Cl)cc1 (racemic) [Epoxiconazole],–,–,–,–,–,–,0.33,0.28,0.28,0.4,0.32,0.4,"Reduction (%) of control (soybean rust [4]): 50.0%; Control of soybean rust, crop 2005/06 (soybean rust [4]): 80.0%; Control of soybean rust, crop 2012/13 (soybean rust [4]): 40.0%; IC50 (Beard et al) [2]: 0.19 µg/mL"
COC(=O)N(OC)c1ccccc1COc1ccn(-c2ccc(Cl)cc2)n1 [Pyraclostrobin],D 1.0 b,–,B 1.13 b,C 1.04 b,E 0.77 b,A 1.37 b,–,–,–,–,–,–,"IC50 ([1]; read-out: CI50 isolate 05/CD): 1.03 µg/mL; IC50 [1, 13]: 0.8 µg/mL; IC50 [1, 14]: 0.75 µg/mL; IC50 [1, 15]: 0.85 µg/mL; IC50 [1, 16]: 0.78 µg/mL; IC50 [1, 17]: 0.58 µg/mL; IC50 ([1]; taken from Table 4 as sensitivity reference, read-out: CI50 standard of sensitivity): 0.75 µg/mL"
CO/C=C(/C(=O)OC)c1ccccc1Oc1cc(Oc2ccccc2C#N)ncn1 [Azoxystrobin],A > 53 a,>53,A > 53 a,A > 53 a,A > 53 a,A > 53 a,–,–,–,–,–,–,"Control of soybean rust in the 2013/14 (last) crop (soybean rust [6]): 16%; Control efficiency reduced per year (soybean rust [7]): 13.8 % per year; CI50 Average [1, 8]: A > 40 a ^ mg/L; CI50 isolate 01/QTZ [1, 9]: A > 40 a mg/L; CI50 isolate 02/ONX [1, 10]: A > 40 a mg/L; CI50 isolate 03/HZT [1, 11]: A > 40 a mg/L; CI50 isolate 04/GUA [1, 12]: A > 40 a mg/L; CI50 isolate 05/CD ([1]; spore germination): A > 40 a mg/L"
OC(Cc1ccccc1Cl)(Cn1nc[nH]c1=S)C1(Cl)CC1 (centres unmarked) [Prothioconazole],–,–,–,–,–,–,0.21,0.22,< 0.1,0.26,0.25,0.14,–
CC(C)(C)C(O)(CCc1ccc(Cl)cc1)Cn1cncn1 (centres unmarked) [Tebuconazole],–,–,–,–,–,–,0.57,0.66,0.49,0.65,0.61,0.44,"Control (%) (soybean rust [3]): 42%; Severity (%) (soybean rust [3]): 49.9%; Reduction (%) of control (soybean rust [4]): 32.8%; Control of soybean rust, crop 2005/06 (soybean rust [4]): 95.0%; Control of soybean rust, crop 2012/13 (soybean rust [4]): 64.0%; Control efficiency reduced per year (soybean rust [7]): 7.2 % per year; IC50 (Beard et al) [2]: 0.25 µg/mL; IC50 (Hunger & Brown) [2]: 0.19 µg/mL"
